Assay results taken from patent US20140228407A1, “TETRA-PYRIDINE COMPOUNDS AND COMPOSITION FOR PROTECTING CELLS, TISSUES AND ORGANS AGAINST ISCHEMIA-REPERFUSION INJURY” (YISSUM RESEARCH DEVELOPMENT COMPANY OF THE HEBREW …, priority 2011, published 2014).
Marks after values point to notes of the source that are not given here.

Experiments:
[1] = system: model of ischemia/reperfusion in the CD rat; assay: Mortality and adverse changes in Phase B of rat ischemia/reperfusion study; assay type: in vivo
Procedure: (§1) This study was conducted to evaluate the effects of the Compound #6 on cardiac function, infarct size, and Troponin I levels in a model of ischemia/reperfusion in the CD® (CR1CD® (SD)) rat. Phase A was conducted for toxicity evaluation purposes. In Phase B (the efficacy phase), two treatment groups of eight male rats were administered Compound #6 at dose levels of 0.2 and 2 mg/kg via intravenous infusion following myocardial infarction. The 2 mg/kg dose of Compound #6 was administered intravenously via a slow infusion starting 3 to 14 minutes prior to reperfusion and continuing for 20 minutes to 20 minutes and 32 seconds, which was approximately 6 to 17 minutes after reperfusion (depending on the infusion start time). The 0.2 mg/kg dose of Compound #6 was administered intravenously via a slow infusion starting 10 minutes prior to reperfusion and continuing for 30 minutes to 30 minutes and 30 seconds, which was approximately 20 minutes after reperfusion.
The animals were placed on mechanical ventilation and not intubated. Once anesthetized, the animal was placed in a right lateral recumbency, an arterial catheter or polyethylene tube was placed in the carotid artery for monitoring blood pressure and a thoracotomy was performed. The left coronary artery (LCA) was identified. […] In Phase A, the animals were recovered from anesthesia and evaluated for 4 days. […]

[2] = system: model of ischemia/reperfusion in the CD rat; assay: Rat model of ischemia/reperfusion, infarct analysis (Phase B); assay type: in vivo; conditions: for Infarct/AAR (%) Mean: 4 hour reperfusion; for Infarct/AAR (%) Mean / Infarct/LV (%) Mean: rat
Procedure: as §1
The animals were placed on mechanical ventilation and […]. Once anesthetized, the animal was placed in a right lateral recumbency, an arterial catheter or polyethylene tube was placed in the carotid artery for monitoring blood pressure and a thoracotomy was performed. The left coronary artery (LCA) was identified. A ligature was placed around the LCA and the vessel was ligated. The LCA was maintained occluded for 29 to 43 minutes. Occlusion of the vessel was verified via blanching of the heart and via ST interval changes. At the end of the occlusion period, the knot was loosened leaving the ligature in place, and the vessel was allowed to reperfuse for 3 hours 27 minutes to 4 hours 51 minutes. Following infarct, a chest tube was placed, the deep and superficial muscle layers were sutured at the surgical incision, and the skin was closed with staples. The chest tube was removed after spontaneous respiration was established. In Phase A, the animals were recovered from anesthesia and evaluated for 4 days. In Phase B, animals were maintained under anesthesia for 3 hours 27 minutes to 4 hours 51 minutes prior to being submitted to necropsy.
In Phase B, Compound #6 was administered once on Day 0 via intravenous infusion at dose levels of 0.2 and 2 mg/kg. The doses were administered at a dose volume of 1 mL/kg (0.05 [2 mg/kg] or 0.033 [0.2 mg/kg] mL/kg/minute). Two control groups received the vehicle (saline) or the vehicle for Compound #6 (10% (w/v) 2-hydroxypropyl-beta-cyclodextrin and 100 mM sodium chloride in deionized water) in the same manner as the 2 mg/kg treated group. The vehicles and 2 mg/kg Compound #6 were administered intravenously via a slow infusion starting 3 to 14 minutes prior to reperfusion and continuing for 20 minutes to 20 minutes and 32 seconds, which was approximately 6 to 17 minutes after reperfusion (depending on the infusion start time). The 0.2 mg/kg Compound #6 was administered intravenously via a slow infusion starting 10 minutes prior to reperfusion and continuing for 30 minutes to 30 minutes and 30 seconds, which was approximately 20 minutes after reperfusion. The positive control article, Erythropoietin, was administered at 5000 IU/kg via a bolus intravenous injection. The positive control article dose was administered at a dose volume of 2.5 mL/kg. The positive control was administered via a 3 to 60 second injection at 5 minutes prior to reperfusion.
After LAD reperfusion (4 hours), the animals were euthanized by an intraperitoneal injection of sodium pentobarbital followed by exsanguination via severing the abdominal vena cava. The heart was flushed with heparinized Lactated Ringers Solution (LRS) until clear of blood and the LAD was tied off using the same ligature used to occlude the vessel and Evan Blue dye was injected. The heart was weighed and breadloafed (4-5 sections per animal). […]

## Cc1ccc(CN(CCN(Cc2ccc(C)cn2)Cc2ccc(C)cn2)Cc2ccc(C)cn2)nc1 [Compound #6]
[1]; 0.2 and 2 mg/kg vs saline
  differences in mortality rates between saline animals and treated animals (Phase B): suggest a cardioprotective effect
[1]; Group 5, 0.2 mg/kg
  animals that died between 3 and 4 hours post reperfusion (Phase B): two
[2]; 0.2 mg/kg intravenous infusion
  Infarct/AAR (%) Mean: 22.2±5.24%
  Infarct/LV (%) Mean: 7%
[2]; 0.2 mg/kg intravenous infusion, listed as Comp #6
  Infarct/AAR (%) Mean: 22^b %
[2]; 2 mg/kg intravenous infusion
  Infarct/AAR (%) Mean: 19.1±7.38%
  Infarct/LV (%) Mean: 7%
[2]; 2 mg/kg intravenous infusion, listed as Comp #6
  Infarct/AAR (%) Mean: 19^b %
[2]; either 0.2 or 2.0 mg/kg IV as an infusion, 30 minute ischemia, vs saline and vehicle controls
  infarct size following ischemia-reperfusion injury, in words: significant decrease in infarct size
